Columns and labels:
[1] = system: A549 cells (KRAS G12S mutant); test: Cell proliferation inhibition experiment, 3D spheroid, CellTiter-Glo, A549; type: cell-based, human; conditions: Homo sapiens, A549, 120 h, A549 (KRAS G12S mutant) 3D spheroid, 5 days with compound, CellTiter-Glo; read-out: A549 IC50
Method in brief: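 3D spheroid format; 800 H358 / 400 A549 cells/well, 2% FBS. Cpd 3.16-fold series, 0.1% DMSO, 5 d. Readout CellTiter-Glo luminescence; IR% vs DMSO control and medium blank; 4-parameter IC50.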

[2] = system: phosphorylated ERK downstream of KRAS G12C in MIA PaCa2 cells; test: Cell p-ERK detection experiment (HTRF) in MIA PaCa2; type: cell-based, human; conditions: Homo sapiens, MIA PaCa-2, 2 h, MIA PaCa2 cells, 2 hours with compound, Advance ERK phospho-T202/Y204 HTRF kit; read-out: p-ERK IC50
Method in brief: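 Phospho-ERK (T202/Y204) measured by HTRF after 30 min lysis and 4 h antibody incubation in MIA PaCa2 (KRAS G12C) cells, seeded at 2.5E4 per well and treated 2 h with compounds in 3.16-fold steps, final DMSO 0.1%. IC50 from a four-parameter fit of percent inhibition relative to DMSO and blank wells.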

SMILES | IC50 [1] | IC50 [2]
C=CC(=O)N1CCN2C(=O)c3c(N4CC[C@@H](OC)[C@@H]4C)nc(-c4c(O)cccc4F)c(Cl)c3OC[C@H]2C1 [Z338-1, (6aR)-8-acryloyl-4-chloro-3-(2-fluoro-6-hydroxyphenyl)-1-((2S,3R)-3-methoxy-2-methylpyrrolidin-1-yl)-6,6a,7,8,9,10-hexahydro-12H-pyrazino[2,1-c]pyrido[3,4-f][1,4]oxazepin-12-one] | 12300 nM | 46 nM
C=CC(=O)N1CCN2C(=O)c3c(N4Cc5cn(C)nc5C4C)nc(-c4c(O)cccc4F)c(Cl)c3OC[C@H]2C1 (some centres unmarked) [Z291-2] | 9690 nM | 24 nM
C=CC(=O)N1CCN2C(=O)c3c(N4CC[C@@H](OC)C4(C)C)nc(-c4c(O)cccc4F)c(F)c3OC[C@H]2C1 (single isomer, unassigned) [Z327-1] | 7930 nM | 66 nM
C=CC(=O)N1CCN2C(=O)c3c(N4C[C@@H](N(C)C)CC4(C)C)nc(-c4c(O)cccc4F)c(Cl)c3OC[C@H]2C1 (single isomer, unassigned) [Z324-1] | 2850 nM | 15 nM
C=CC(=O)N1CCN2C(=O)c3c(N4CC(=O)N(CC)C[C@@H]4C)nc(-c4c(O)cccc4F)c(Cl)c3OC[C@H]2C1 [Z319-1, (6aR)-8-acryloyl-4-chloro-1-((S)-4-ethyl-2-methyl-5-oxopiperazin-1-yl)-3-(2-fluoro-6-hydroxyphenyl)-6,6a,7,8,9,10-hexahydro-12H-pyrazino[2,1-c]pyrido[3,4-f][1,4]oxazepin-12-one] | > 30000 nM | 16 nM
C=CC(=O)N1CCN2C(=O)c3c(N4C[C@@H](OC)CC4(C)C)nc(-c4c(O)cccc4F)c(Cl)c3OC[C@H]2C1 (single isomer, unassigned) [Z244-1] | 2900 nM | 31 nM
C=CC(=O)N1CCN2C(=O)c3c(N4C[C@@H](N5CCOCC5)CC4(C)C)nc(-c4c(O)cccc4F)c(Cl)c3OC[C@H]2C1 (single isomer, unassigned) [Z297-2] | 8700 nM | 18 nM
C=CC(=O)N1CCN2C(=O)c3c(N4CC[C@H](OC)C4(C)C)nc(-c4c(O)cccc4F)c(Cl)c3OC[C@H]2C1 (single isomer, unassigned) [Z241a-1] | 9550 nM | 33 nM
C=CC(=O)N1CCN2C(=O)c3c(N4CCN(C)C[C@@H]4C)nc(-c4nc(N)cc(C)c4C(F)(F)F)c(Cl)c3OC[C@H]2C1 [Z328-1, (R)-8-acryloyl-3-(6-amino-4-methyl-3-(trifluoromethyl)pyridin-2-yl)-4-chloro-1-((S)-2,4-dimethylpiperazin-1-yl)-6,6a,7,8,9,10-hexahydro-12H-pyrazino[2,1-c]pyrido[3,4-f][1,4]oxazepin-12-one] | 16100 nM | 15 nM
C=CC(=O)N1CCN2C(=O)c3c(N4C[C@@](C)(O)CC4(C)C)nc(-c4c(O)cccc4F)c(F)c3OC[C@H]2C1 (single isomer, unassigned) [Z256b-1] | 10200 nM | 43 nM
C=CC(=O)N1CCN2C(=O)c3c(N4CC[C@@H](OC)C4(C)C)nc(-c4c(O)cccc4F)c(Cl)c3OC[C@H]2C1 (single isomer, unassigned) [Z241a-2] | 3040 nM | 9 nM
C=CC(=O)N1CCN2C(=O)c3c(N4CCC[C@@]4(C)CO)nc(-c4c(O)cccc4F)c(Cl)c3OC[C@H]2C1 [Z279-2] | > 30000 nM | 35 nM
C=CC(=O)N1CCN2C(=O)c3c(N4CCN(C(=O)CC)C[C@@H]4C)nc(-c4c(O)cccc4F)c(Cl)c3OC[C@H]2C1 [Z316-1, (6aR)-8-acryloyl-4-chloro-3-(2-fluoro-6-hydroxyphenyl)-1-((S)-2-methyl-4-propionylpiperazin-1-yl)-6,6a,7,8,9,10-hexahydro-12H-pyrazino[2,1-c]pyrido[3,4-f][1,4]oxazepin-12-one] | > 30000 nM | 20 nM
C=CC(=O)N1CCN2C(=O)c3c(N4CC[C@H](N(C)C)C4(C)C)nc(-c4c(O)cccc4F)c(Cl)c3OC[C@H]2C1 (single isomer, unassigned) [Z360-2] | > 10000 nM | 25 nM
C=CC(=O)N1CCN2C(=O)c3c(N4C[C@@H](O)CC4(C)C)nc(-c4c(F)ccc(Cl)c4O)c(F)c3OC[C@H]2C1 (single isomer, unassigned) [Z341-1] | 11100 nM | 106 nM
C=CC(=O)N1CCN2C(=O)c3c(N4Cc5nn(C)cc5[C@@H]4C)nc(-c4c(O)cccc4F)c(Cl)c3OC[C@H]2C1 (single isomer, unassigned) [Z345-2] | 9400 nM | 61 nM
C=CC(=O)N1CCN2C(=O)c3c(N4CCN(C(=O)C5CC5)C[C@@H]4C)nc(-c4c(O)cccc4F)c(Cl)c3OC[C@H]2C1 [Z320-1, (6aR)-8-acryloyl-4-chloro-1-((S)-4-(cyclopropanecarbonyl)-2-methylpiperazin-1-yl)-3-(2-fluoro-6-hydroxyphenyl)-6,6a,7,8,9,10-hexahydro-12H-pyrazino[2,1-c]pyrido[3,4-f][1,4]oxazepin-12-one] | 8920 nM | 17 nM
C=CC(=O)N1CCN2C(=O)c3c(N4C[C@@H](CO)CC4(C)C)nc(-c4c(O)cccc4F)c(Cl)c3OC[C@H]2C1 (single isomer, unassigned) [Z240-1] | 10000 nM | 19 nM
C=CC(=O)N1CCN2C(=O)c3c(N4C[C@@H](OC)CC4(C)C)nc(-c4c(O)cccc4F)c(F)c3OC[C@H]2C1 (single isomer, unassigned) [Z256a-1] | 9160 nM | 42 nM

Continued, values first:

IC50 [1] | IC50 [2] | SMILES
8550 nM | 62 nM | C=CC(=O)N1CCN2C(=O)c3c(N4CCC(N(C)C)C4(C)C)nc(-c4c(O)cccc4F)c(Cl)c3OC[C@H]2C1 (stereo partly drawn) [Z334, (6aR)-8-acryloyl-4-chloro-1-(3-(dimethylamino)-2,2-dimethylpyrrolidin-1-yl)-3-(2-fluoro-6-hydroxyphenyl)-6,6a,7,8,9,10-hexahydro-12H-pyrazino[2,1-c]pyrido[3,4-f][1,4]oxazepin-12-one]
19000 nM | 65 nM | C=CC(=O)N1CCN2C(=O)c3c(Nc4c(C(C)C)ncnc4C(C)C)nc(-c4c(O)cccc4F)c(Cl)c3OC[C@H]2C1 [Z15, (6aR)-8-acryloyl-4-chloro-1-((4,6-diisopropylpyrimidin-5-yl)amino)-3-(2-fluoro-6-hydroxyphenyl)-6,6a,7,8,9,10-hexahydro-12H-pyrazino[2,1-c]pyrido[3,4-f][1,4]oxazepin-12-one]
> 10000 nM | 107 nM | C=CC(=O)N1CCN2C(=O)c3c(N4CCN(C)C5(CC5)C4)nc(-c4c(O)cccc4F)c(Cl)c3OC[C@H]2C1 [Z83, (6aR)-8-acryloyl-4-chloro-3-(2-fluoro-6-hydroxyphenyl)-1-(4-methyl-4,7-diazaspiro[2 .5]octan-7-yl)-6,6a,7,8,9,10-hexahydro-12H-pyrazino[2,1-c]pyrido[3,4-f][1,4]oxazepin-12 (6aH)-one]
9020 nM | 86 nM | C=CC(=O)N1CCN2C(=O)c3c(N(C)c4c(C(C)C)ncnc4C(C)C)nc(-c4c(O)cccc4F)c(Cl)c3OC[C@H]2C1 [Z20, (6aR)-8-acryloyl-4-chloro-1-((4,6-diisopropylpyrimidin-5-yl)(methyl)amino)-3-(2-fluoro-6-hydroxyphenyl)-6,6a,7,8,9,10-hexahydro-12H-pyrazino[2,1-c]pyrido[3,4-f][1,4]oxazepin-12-one]
> 30000 nM | 62 nM | C=CC(=O)N1CCN2C(=O)c3c(N4CCOCC4)nc(-c4nc(N)cc(C)c4C(F)(F)F)c(Cl)c3OC[C@H]2C1 [Z314]
28200 nM | 26 nM | C=CC(=O)N1CCN2C(=O)c3c(N4CCN(CCOC)C[C@@H]4C)nc(-c4c(O)cccc4F)c(Cl)c3OC[C@H]2C1 [Z257a, (6aR)-8-acryloyl-4-chloro-3-(2-fluoro-6-hydroxyphenyl)-1-((S)-4-(2-methoxyethyl)-2-methylpiperazin-1-yl)-6,6a,7,8,9,10-hexahydro-12H-pyrazino[2,1-c]pyrido[3,4-f][1,4]oxazepin-12-one]
10700 nM | 36 nM | C=CC(=O)N1CCN2C(=O)c3c(N4CCN(CC)C(C)(C)C4)nc(-c4c(O)cccc4F)c(Cl)c3OC[C@H]2C1 [Z322, (6aR)-8-actyloyl-4-chloro-3-(2-fluoro-6-hydroxyphenyl)-1-(4-ethyl-3,3-dimethylpiperazin-1-yl)-6,6a,7,8,9,10-hexahydro-12H-pyrazino[2,1-c]pyrido[3,4-f][1,4]oxazepin-12-one]
3060 nM | 84 nM | C=CC(=O)N1CCN2C(=O)c3c(N4CCN(C)C[C@@H]4C)nc(-c4c(F)ccc(Cl)c4O)c(Cl)c3OC[C@H]2C1 [Z342, (6aR)-8-acryloyl-4-chloro-3-(3-chloro-6-fluoro-2-hydroxyphenyl)-1-((S)-2,4-dimethylpiperazin-1-yl)-6,6a,7,8,9,10-hexahydro-12H-pyrazino[2,1-c]pyrido[3,4-f][1,4]oxazepin-12-one]
> 30000 nM | 62 nM | C=CC(=O)N1CCN2C(=O)c3c(N4CCN(C(C)=O)C(C)(C)C4)nc(-c4c(O)cccc4F)c(Cl)c3OC[C@H]2C1 [Z315, (6aR)-1-(4-acetyl-3,3-dimethylpiperazin-1-yl)-8-acryloyl-4-chloro-3-(2-fluoro-6-hydroxyphenyl)-6,6a,7,8,9,10-hexahydro-12H-pyrazino[2,1-c]pyrido[3,4-f][1,4]oxazepin-12-one]

From patent US20230203060A1 (GENFLEET THERAPEUTICS (SHANGHAI) INC., priority 2020, published 2023)
